Here are results for eight compounds from patent US6043254A, “Indolinones having kinase-inhibiting activity” (Boehringer Ingelheim Pharma KG, priority 1998, dated 2000).

Assay [1] relates to SK-UT-1B cells (Leimyosarcoma tumour cell line). Briefly: Test 2: inhibition of the proliferation of cultivated human tumour cells (14C-thymidine incorporation). It is filed as cell-based. The settings on record: Skut1B, 48 hours' incubation, then 14C-thymidine for a further 24 hours, read-out: Inhibiting the proliferation of SKUT-1B cells: IC50. On the procedure:
Inhibition of the Proliferation of Cultivated Human Tumour Cells
Cells of the Leimyosarcoma tumour cell line SK-UT-1B (obtained from the American Type Culture Collection (ATCC)) were cultivated in Minimum Essential Medium with non-essential amino acids (Gibco), supplemented with sodium pyruvate (1 mmol), glutamine (2 mmol) and 10% foetal calf serum (Gibco) and harvested during the log-growth phase. Then the SK-UT-1B cells were added to Cytostar® multi-well plates (Amersham) at a density of 4000 cells per well and incubated overnight in an incubator. Various concentrations of the compounds (dissolved in DMSO; final concentration: <1%) were added to the cells. After 48 hours' incubation ^14 C-thymidine (Amersham) was added to each well and incubation was continued for a further 24 hours. The quantity of ^14 C-thymidine incorporated into the tumour cells in the presence of the inhibitor and representing the number of cells in the S phase was measured in a Wallace 1450 Microbeta Liquid Scintillation Counter. IC50 values for the inhibition of proliferation (=inhibition of incorporated ^14 C-thymidine) were calculated, correcting for the background radiation. All the measurements were done twice.

In another assay the target is T1, cycline D1/CDK4 (Homo sapiens, UniProt P11802).
T1 construct: His6; made in house; host or cells: High Five insect cells (BTI-TN-5B1-4), recombinant baculovirus with two promoters
Briefly: Test 1: inhibition of cycline/CDK enzyme in vitro activity. Conditions: GST-tagged pRB substrate; 45 minutes at 30° C.; 1% DMSO. The class given is biochemical. An excerpt: Inhibition of cycline/CDK Enzyme in vitro Activity
High Five™ insect cells (BTI-TN-5B1-4) which had been infected with a high titre of recombinant baculovirus were used to produce active human cycline/CDK holoenzymes. By using a baculovirus vector which contained two promoters (polyhedrin enhancer promoter, P10 enhancer promoter), GST-tagged cyclines (e.g. cycline D1 or cycline D3) with the corresponding His6 -tagged CDK subunit (e.g. for CDK4 or CDK6) were expressed in the same cell. The active holoenzyme was isolated by affinity chromatography on glutathione sepharose. Recombinant GST-tagged pRB (aa 379-928) was produced in E. coli and purified by affinity chromatography on glutathione sepharose.
The substrates used for the kinase assays depended on the specific kinases. Iistone H1 (Sigma) was used as the substrate for cycline E/CDK2, cycline A/CDK2, cycline B/CDK1 and for v-cycline/CDK6. GST-tagged pRB (aa 379-928) was used as substrate for cycline D1/CDK4, cycline D3/CDK4, cycline D1/CDK6 and for cycline D3/CDK6.
Lysates of the insect cells infected with recombinant baculovirus or recombinant kinases (obtained from the lysates by purification) were incubated together with radiolabelled ATP in the presence of a suitable substrate with various concentrations of the inhibitor in a 1% DMSO solution (dimethyl sulphoxide) for 45 minutes at 30° C. The substrate proteins with associated radioactivity were precipitated with 5% TCA (trichloroacetic acid) in water-repellent PVDF multi-well microtitre plates (Millipore) or with 0.5% phosphoric acid solution on Whatman P81 filters. After the addition of scintillation liquid the radioactivity was measured in a Wallace 1450 Microbeta Liquid Scintillation Counter. For each concentration of the substance double measurements were carried out; IC50 values were calculated for the enzyme inhibition.

Assay [2] deals with tumour (SK-UT-1B, or non-small cell lung tumour NCI-H460). Briefly: Test 3: in vivo effects on tumour-bearing nude mice. The arrangement: species or system nude mice (NMRI nu/nu). The settings on record: 100 mg/kg p.o. once a day for two weeks; male nude mice (n=9); significant, p<0.05. On the procedure: In vivo Effects on Tumour-bearing Nude Mice
10^6 cells [SK-UT-1B, or non-small cell lung tumour NCI-H460 (obtained from ATCC)] in a volume of 0.1 ml were injected subcutaneously into male and/or female nude mice (NMRI nu/nu; 25-35 g; N=10-20); alternatively, small fragments of SK-UT-1B or NCI-H460 cell clumps were implanted subcutaneously. One to three weeks after the injection or implantation a kinase inhibitor was administered daily by oral route for a period of 2 to 4 weeks (by oesophageal tube). The size of the tumour was measured three times a week using a digital sliding gauge. The effect of a kinase inhibitor on the tumour growth was determined as a percentage inhibition compared with a control group treated with placebo.

T1 sequence (P11802 whole entry): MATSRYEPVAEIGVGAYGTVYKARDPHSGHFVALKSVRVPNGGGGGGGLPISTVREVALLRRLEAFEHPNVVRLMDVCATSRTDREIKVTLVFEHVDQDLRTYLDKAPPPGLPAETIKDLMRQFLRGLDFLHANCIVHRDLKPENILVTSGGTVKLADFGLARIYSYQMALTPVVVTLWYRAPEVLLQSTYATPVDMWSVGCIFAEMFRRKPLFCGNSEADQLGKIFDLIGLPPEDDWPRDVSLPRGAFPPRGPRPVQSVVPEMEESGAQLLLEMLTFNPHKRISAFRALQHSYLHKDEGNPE
T1 sequence (P24385 whole entry partner): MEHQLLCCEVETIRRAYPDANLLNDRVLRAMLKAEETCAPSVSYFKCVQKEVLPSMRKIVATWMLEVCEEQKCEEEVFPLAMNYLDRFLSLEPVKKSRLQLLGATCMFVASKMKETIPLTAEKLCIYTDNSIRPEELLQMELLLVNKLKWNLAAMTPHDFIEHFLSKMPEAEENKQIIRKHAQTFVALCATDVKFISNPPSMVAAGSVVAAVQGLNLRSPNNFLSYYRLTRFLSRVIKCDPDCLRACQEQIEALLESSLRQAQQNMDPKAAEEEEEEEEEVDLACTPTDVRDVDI

With `O=C1Nc2ccc([N+](=O)[O-])cc2/C1=C(/Nc1ccc(-c2c[nH]cn2)cc1)c1ccccc1` [Example 2.5], the IC50 in assay [1] came to 0.34 µM; against cycline D1/CDK4 it was 1 µM. Besides, the “reduction in the tumour size” value in assay [2] is “around 65%”.
For the compound `Cn1ccnc1-c1ccc(N/C(=C2\C(=O)Nc3ccc([N+](=O)[O-])cc32)c2ccccc2)cc1` [Example 3.12, 3-{(Z)-1-[4-(1-methyl-1H-imidazol-2-yl)anilino]-1-phenylmethylidene}-5-nitro-2-indolinone], the IC50 in assay [1] was 0.4 µM.
The same measure, in the same setting: then `O=C1Nc2ccc([N+](=O)[O-])cc2/C1=C(/Nc1ccc(CN2CCCC2)cc1)c1ccccc1` [Example 3.18, 3-{(Z)-1-[4-((pyrrolidin-1-yl)methyl)anilino]-1-phenylmethylidene}-5-nitro-2-indolinone], with 0.22 µM.
`O=C1Nc2ccc([N+](=O)[O-])cc2/C1=C(/Nc1ccc(CCN2CCCC2)cc1)c1ccccc1` [Example 4.9, 3-{(Z)-1-[4-(2-(pyrrolidin-1-yl)ethyl)anilino]-1-phenylmethylidene}-5-nitro-2-indolin] gave an IC50 at cycline D1/CDK4 of 0.055 µM.
Consider `O=C1Nc2ccc([N+](=O)[O-])cc2/C1=C(/Nc1ccc(CN2C(=O)CCC2=O)cc1)c1ccccc1` [Example 4.11, 3{(Z)-1-[4-((2,5-dioxo-pyrrolidin-1-yl)methyl)anilino]-1-phenylmethylidene}-5-nitro-2-indolinone], for which the IC50 in assay [1] turned out to be 0.53 µM.
Same read-out and setting: the value for `O=C1Nc2ccccc2/C1=C(/Nc1ccc(-c2cn3cccnc3n2)cc1)c1ccccc1` [Example 8.3, 3-{(Z)-1-[4-(imidazo[1,2-a]pyrimidin-2-yl)anilino]-1-phenylmethylidene}-2-indolinone] was 1.3 µM.
Turning to `O=C1Nc2ccc([N+](=O)[O-])cc2/C1=C(/Nc1ccc2c(c1)CCNC2)c1ccccc1` [Example 14.1, 3-{(Z)-1-[(1,2,3,4-tetrahydro-isoquinolin-6-yl)amino]-1-phenylmethylidene}-5-nitro-2-indolinone], the IC50 against cycline D1/CDK4 was 0.15 µM.
With `CC(=O)N1CCc2cc(N/C(=C3\C(=O)Nc4ccc([N+](=O)[O-])cc43)c3ccccc3)ccc2C1` [Example 18.2, 3-{(Z)-1-[(2-acetyl-1,2,3,4-tetrahydro-isoquinolin-6-yl)-amino]-1-phenylmethylidene}-5-nitro-2-indolinone], the IC50 on cycline D1/CDK4 is 1.4 µM.
